The text below walks through data of patent US9617267B2, “Compounds and methods for kinase modulation, and indications therefor” (Plexxikon Inc., priority 2009, dated 2017).

Series [1] addresses B-Raf V600E (Homo sapiens (Human), UniProt P15056, V600E). As to the kind of experiment: B-Raf V600E kinase activity biochemical assay (AlphaScreen, biotin-MEK1 phosphorylation). The note with it: for IC50: B-Raf V600E; for Biochemical activity ratio V600E/C: ratio of IC50 B-Raf V600E / c-Raf-1. The essentials: (§1)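 Biotin-MEK1 phosphorylation measured after 45 min kinase reaction at RT with 100 μM ATP final; compounds tested at 8 points from 0.1 mM DMSO stock.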

In series [2] the target is CYP1A2 (Homo sapiens (Human), UniProt P05177). As to the kind of experiment: CYP enzyme inhibition, fluorescent substrate (CEC). A digest of the protocol: (§2)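 Ten-point 1:1 compound dilutions in NADPH-regenerating cofactor mix, pre-incubated 10 min at 37 °C before enzyme/substrate addition: CYP1A2 0.5 pmol with 5 μM CEC, 15 min, 409 ex/460 em; CYP2D6 1.5 pmol with 1.5 μM AMMC, 30 min, 409 ex/530 em. IC50 from fluorescent product vs concentration.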
CYP1A2, sequence (P05177 whole entry): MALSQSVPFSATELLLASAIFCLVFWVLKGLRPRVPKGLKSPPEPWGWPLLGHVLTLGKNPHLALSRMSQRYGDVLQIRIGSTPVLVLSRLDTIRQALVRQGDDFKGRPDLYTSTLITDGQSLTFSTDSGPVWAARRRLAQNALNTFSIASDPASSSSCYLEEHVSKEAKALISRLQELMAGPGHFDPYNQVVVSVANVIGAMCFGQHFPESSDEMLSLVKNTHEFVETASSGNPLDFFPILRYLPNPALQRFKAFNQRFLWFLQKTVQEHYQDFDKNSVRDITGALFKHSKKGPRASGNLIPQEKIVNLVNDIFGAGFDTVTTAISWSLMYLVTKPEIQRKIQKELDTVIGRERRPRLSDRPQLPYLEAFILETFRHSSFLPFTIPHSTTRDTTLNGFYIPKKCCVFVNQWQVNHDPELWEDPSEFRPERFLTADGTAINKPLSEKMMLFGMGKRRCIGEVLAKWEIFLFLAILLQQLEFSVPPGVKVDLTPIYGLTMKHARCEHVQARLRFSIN

Series [3] deals with CYP3A4(BFC) (Homo sapiens (Human), UniProt P08684). As to the kind of experiment: CYP enzyme inhibition, fluorescent substrate BFC. The essentials:
(§3)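 Human CYP activity was followed by the fluorescence of the metabolized product of a known substrate, which falls as metabolism is inhibited. Compounds from 100 mM DMSO stocks were serially diluted 1:1 over 10 points in co-factor mix and preincubated 10 min at 37 °C. IC50 was fitted from signal versus concentration.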

Series [4] is described as follows: Relative solubility by turbidity threshold concentration in aqueous buffers (pH 1.5, 4.5, 6.8, 7.4). The format is physicochemical. The note with it: for turbidity threshold (L, M, H) 1.4: pH 1.4 [sic] (method: SGF pH 1.5); for turbidity threshold (L, M, H) 4.5: pH 4.5 (SIF); for turbidity threshold (L, M, H) 6.8: pH 6.8 (SIF); for turbidity threshold (L, M, H) 7.4: pH 7.4 (HEPES). A digest of the protocol: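 Solubility class (high >250 μM, moderate 31.3–250 μM, low <31.3 μM) comes from the concentration where absorbance reaches a 0.01 threshold, averaged across 490/535/650 nm. Samples were compound dilutions from DMSO stock, 1 μL into 99 μL buffer at pH 1.5, 4.5, 6.8 or 7.4.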

The target in series [5] is CYP3A4(BQ) (Homo sapiens (Human), UniProt P08684). As to the kind of experiment: CYP enzyme inhibition, fluorescent substrate BQ. The essentials:
as §3

The test system of series [6] is B-Raf. As to the kind of experiment: B-Raf kinase activity biochemical assay (AlphaScreen, biotin-MEK1 phosphorylation). The conditions noted are these: for Biochemical activity ratio B/V600E: ratio of IC50 B-Raf / B-Raf V600E; for Biochemical activity ratio B/C: ratio of IC50 B-Raf / c-Raf-1. The essentials:
as §1

The target of series [7] is B-Raf (Homo sapiens (Human), UniProt P15056). The description is as above. The note with it: B-Raf. The essentials:
as §1

The target in series [8] is CYP2C19 (Homo sapiens (Human), UniProt P33261). As to the kind of experiment: CYP enzyme inhibition, fluorescent substrate (CEC). A digest of the protocol: as §3
CYP2C19, sequence (P33261 whole entry): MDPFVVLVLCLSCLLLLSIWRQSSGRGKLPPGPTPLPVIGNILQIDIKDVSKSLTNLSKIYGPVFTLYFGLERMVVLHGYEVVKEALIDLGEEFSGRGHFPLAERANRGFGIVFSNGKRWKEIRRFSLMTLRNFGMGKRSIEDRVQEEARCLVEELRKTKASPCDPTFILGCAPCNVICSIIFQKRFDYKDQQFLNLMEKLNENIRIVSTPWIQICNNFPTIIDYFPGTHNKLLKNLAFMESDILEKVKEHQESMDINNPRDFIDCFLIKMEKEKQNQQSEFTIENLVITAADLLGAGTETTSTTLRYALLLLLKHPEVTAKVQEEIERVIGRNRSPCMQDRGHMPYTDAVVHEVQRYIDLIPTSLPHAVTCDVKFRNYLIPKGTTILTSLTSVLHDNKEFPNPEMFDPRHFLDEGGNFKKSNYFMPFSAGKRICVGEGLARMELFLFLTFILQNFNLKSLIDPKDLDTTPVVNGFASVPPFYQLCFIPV
Series [9] concerns the target CYP2D6 (Homo sapiens (Human), UniProt P10635). As to the kind of experiment: CYP enzyme inhibition, fluorescent substrate (AMMC). The note with it: read-out: Cyp IC50 2D6. The format is in vitro ADME. A digest of the protocol: as §2
Series [10] has as its target c-Raf-1 (Homo sapiens, UniProt P04049). As to the kind of experiment: c-Raf-1 kinase activity biochemical assay (AlphaScreen, biotin-MEK1 phosphorylation). A digest of the protocol:
as §1

Series [11] deals with CYP2C9 (Homo sapiens (Human), UniProt P11712). As to the kind of experiment: CYP enzyme inhibition, fluorescent substrate (MFC). The essentials:
as §3

CYP2C9, sequence (P11712 whole entry): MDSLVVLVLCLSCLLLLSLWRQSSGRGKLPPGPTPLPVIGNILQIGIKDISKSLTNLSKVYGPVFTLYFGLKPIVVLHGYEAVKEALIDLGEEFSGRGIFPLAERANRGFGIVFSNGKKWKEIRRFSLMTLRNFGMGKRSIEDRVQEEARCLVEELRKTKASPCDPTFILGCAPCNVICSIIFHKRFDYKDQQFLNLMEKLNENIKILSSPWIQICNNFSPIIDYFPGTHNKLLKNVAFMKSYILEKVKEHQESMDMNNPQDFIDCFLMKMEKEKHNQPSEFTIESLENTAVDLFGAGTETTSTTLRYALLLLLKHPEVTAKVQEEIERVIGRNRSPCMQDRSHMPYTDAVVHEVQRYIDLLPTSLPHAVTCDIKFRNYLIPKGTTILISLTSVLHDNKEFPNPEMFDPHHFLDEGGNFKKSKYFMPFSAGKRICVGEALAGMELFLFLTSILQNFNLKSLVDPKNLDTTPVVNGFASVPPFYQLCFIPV
CYP2D6, sequence (P10635 whole entry): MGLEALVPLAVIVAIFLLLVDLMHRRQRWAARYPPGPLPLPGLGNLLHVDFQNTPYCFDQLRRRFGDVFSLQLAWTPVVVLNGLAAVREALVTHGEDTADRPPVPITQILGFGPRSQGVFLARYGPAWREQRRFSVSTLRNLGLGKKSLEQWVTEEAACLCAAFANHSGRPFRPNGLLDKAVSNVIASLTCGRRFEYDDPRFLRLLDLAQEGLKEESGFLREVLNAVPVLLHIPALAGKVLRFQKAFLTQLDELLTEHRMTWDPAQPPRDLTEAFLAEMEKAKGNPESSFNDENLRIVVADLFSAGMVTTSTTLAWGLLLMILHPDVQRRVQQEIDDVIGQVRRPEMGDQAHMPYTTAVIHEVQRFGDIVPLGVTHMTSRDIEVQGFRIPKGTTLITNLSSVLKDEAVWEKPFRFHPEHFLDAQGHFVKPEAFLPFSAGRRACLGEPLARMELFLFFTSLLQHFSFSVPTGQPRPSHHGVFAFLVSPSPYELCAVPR
CYP3A4(BFC), sequence (P08684 whole entry): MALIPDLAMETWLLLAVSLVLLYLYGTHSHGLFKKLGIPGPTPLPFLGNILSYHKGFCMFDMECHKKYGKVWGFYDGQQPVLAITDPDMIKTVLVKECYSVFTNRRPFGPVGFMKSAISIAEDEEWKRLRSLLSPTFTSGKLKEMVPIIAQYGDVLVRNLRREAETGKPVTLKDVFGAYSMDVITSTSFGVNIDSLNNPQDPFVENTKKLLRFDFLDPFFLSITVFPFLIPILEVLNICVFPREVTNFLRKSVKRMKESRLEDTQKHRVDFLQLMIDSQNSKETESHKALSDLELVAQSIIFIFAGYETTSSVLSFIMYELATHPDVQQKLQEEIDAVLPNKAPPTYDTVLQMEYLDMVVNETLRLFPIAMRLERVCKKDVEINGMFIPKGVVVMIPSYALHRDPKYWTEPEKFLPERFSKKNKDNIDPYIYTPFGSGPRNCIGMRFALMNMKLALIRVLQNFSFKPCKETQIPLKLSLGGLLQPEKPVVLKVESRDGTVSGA
CYP3A4(BQ), sequence (P08684 whole entry): as above
B-Raf (Homo sapiens (Human), UniProt P15056), sequence (P15056 whole entry): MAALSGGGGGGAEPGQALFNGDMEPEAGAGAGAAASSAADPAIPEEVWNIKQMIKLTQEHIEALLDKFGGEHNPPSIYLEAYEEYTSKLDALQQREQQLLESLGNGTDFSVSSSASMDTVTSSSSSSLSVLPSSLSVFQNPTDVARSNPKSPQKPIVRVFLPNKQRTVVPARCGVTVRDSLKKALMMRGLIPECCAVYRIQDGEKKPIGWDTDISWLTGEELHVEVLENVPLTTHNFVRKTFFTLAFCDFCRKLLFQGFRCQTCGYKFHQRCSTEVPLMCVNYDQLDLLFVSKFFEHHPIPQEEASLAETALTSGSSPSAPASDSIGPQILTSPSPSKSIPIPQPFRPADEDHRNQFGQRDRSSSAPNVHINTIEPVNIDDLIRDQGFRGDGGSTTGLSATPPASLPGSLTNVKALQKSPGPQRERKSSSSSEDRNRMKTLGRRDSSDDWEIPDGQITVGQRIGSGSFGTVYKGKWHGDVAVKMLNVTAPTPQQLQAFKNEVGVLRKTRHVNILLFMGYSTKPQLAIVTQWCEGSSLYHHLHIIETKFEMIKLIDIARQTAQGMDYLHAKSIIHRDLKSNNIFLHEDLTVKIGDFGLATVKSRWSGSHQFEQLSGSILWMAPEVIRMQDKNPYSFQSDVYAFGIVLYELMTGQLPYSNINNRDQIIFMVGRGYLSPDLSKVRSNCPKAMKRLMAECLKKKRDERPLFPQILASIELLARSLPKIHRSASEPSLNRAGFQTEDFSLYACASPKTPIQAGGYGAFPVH
B-Raf V600E, sequence (P15056 whole entry V600E): as the sequence (P15056 whole entry) above, with V600E counted along it
c-Raf-1, sequence (P04049 whole entry, looked up): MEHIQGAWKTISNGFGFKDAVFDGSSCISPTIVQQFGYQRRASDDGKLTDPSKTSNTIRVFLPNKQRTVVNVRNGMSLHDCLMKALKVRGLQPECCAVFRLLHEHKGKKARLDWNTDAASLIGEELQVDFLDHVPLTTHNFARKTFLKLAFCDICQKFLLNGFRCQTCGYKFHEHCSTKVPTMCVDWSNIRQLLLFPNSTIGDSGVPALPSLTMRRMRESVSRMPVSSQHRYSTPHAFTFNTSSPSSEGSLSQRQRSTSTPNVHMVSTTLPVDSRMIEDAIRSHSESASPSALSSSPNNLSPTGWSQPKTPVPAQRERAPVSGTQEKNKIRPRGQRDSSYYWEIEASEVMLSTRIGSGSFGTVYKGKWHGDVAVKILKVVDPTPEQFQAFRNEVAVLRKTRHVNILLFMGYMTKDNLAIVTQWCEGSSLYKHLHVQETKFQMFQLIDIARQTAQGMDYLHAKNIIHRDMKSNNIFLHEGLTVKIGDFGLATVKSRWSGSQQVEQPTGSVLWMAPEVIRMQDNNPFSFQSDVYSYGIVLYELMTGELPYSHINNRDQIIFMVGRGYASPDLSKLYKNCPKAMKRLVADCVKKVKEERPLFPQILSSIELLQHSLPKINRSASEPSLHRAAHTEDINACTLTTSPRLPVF

`CCCS(=O)(=O)Nc1ccc(F)c(C(=O)c2c[nH]c3ncc(C)c(Cl)c23)c1F` [P-2001, Propane-1-sulfonic acid [3-(4-chloro-5-methyl-1H-pyrrolo[2,3-b]pyridine-3-carbonyl)-2,4-difluoro-phenyl]-amide]: the concentration for half-maximal inhibition (IC50) in [1] was less than 0.1 µM; in series [2], more than 10 µM; in series [3], more than 10 µM; in series [5], more than 10 µM; in [7] it was less than 0.1 µM; in [8], 5 to 10 µM. The concentration for half-maximal inhibition (IC50) was more than 10 µM in series [9], less than 0.1 µM in series [10] and more than 10 µM in [11]. The “Biochemical activity ratio V600E/C” value in series [1] is on record as 0.1-10. Besides, the “turbidity threshold (L, M, H) 1.4” value in series [4] is “M (moderate solubility if the threshold concentration is 31.3 μM to 250 μM)”. Moreover, the “turbidity threshold (L, M, H) 4.5” value in series [4] is “M (moderate solubility if the threshold concentration is 31.3 μM to 250 μM)”. In addition, the “turbidity threshold (L, M, H) 6.8” value in series [4] is on record as “M (moderate solubility if the threshold concentration is 31.3 μM to 250 μM)”. Also, in series [4], the “turbidity threshold (L, M, H) 7.4” value is “M (moderate solubility if the threshold concentration is 31.3 μM to 250 μM)”. Further, the “Biochemical activity ratio B/V600E” value in series [6] was 0.1-10. Also, in series [6], the “Biochemical activity ratio B/C” value is reported as 0.1-10.
Regarding `CCCS(=O)(=O)Nc1ccc(F)c(C(=O)c2c[nH]c3ncc(OC)c(Cl)c23)c1F` [P-2002, Propane-1-sulfonic acid [3-(4-chloro-5-methoxy-1H-pyrrolo[2,3-b]pyridine-3-carbonyl)-2,4-difluoro-phenyl]-amide], the IC50 in series [1] is less than 0.1 µM; in series [2], more than 10 µM; in series [3] it was 5 to 10 µM; in series [5], 5 to 10 µM; in series [7] it was less than 0.1 µM; in [8], less than 5 µM. For the same compound, the concentration for half-maximal inhibition (IC50) in series [9] was more than 10 µM; in [10], less than 0.1 µM; in series [11], less than 5 µM. The “Biochemical activity ratio V600E/C” value in series [1] was 0.1-10. The “turbidity threshold (L, M, H) 1.4” value in series [4] is “M (moderate solubility if the threshold concentration is 31.3 μM to 250 μM)”. Also, the “turbidity threshold (L, M, H) 4.5” value in [4] was “M (moderate solubility if the threshold concentration is 31.3 μM to 250 μM)”. In [4], the “turbidity threshold (L, M, H) 6.8” value is reported as “M (moderate solubility if the threshold concentration is 31.3 μM to 250 μM)”. For the same compound, the “turbidity threshold (L, M, H) 7.4” value in [4] is listed as “M (moderate solubility if the threshold concentration is 31.3 μM to 250 μM)”. Also, the “Biochemical activity ratio B/V600E” value in series [6] was 0.1-10. The “Biochemical activity ratio B/C” value in series [6] was 0.1-10.
Take `CCCS(=O)(=O)Nc1ccc(F)c(C(=O)c2c[nH]c3ncc(F)c(C#N)c23)c1F` [P-2003, Propane-1-sulfonic acid [3-(4-cyano-5-fluoro-1H-pyrrolo[2,3-b]pyridine-3-carbonyl)-2,4-difluoro-phenyl]-amide]: the IC50 in series [1] was less than 0.1 µM; in series [2], more than 10 µM; in series [3] it was 5 to 10 µM; in [5] it was 5 to 10 µM; in [7], less than 0.1 µM; in series [8], more than 10 µM. Besides, the results for the IC50 in series [9], in [10] and in series [11] were more than 10 µM, less than 0.1 µM and less than 5 µM, respectively. Besides, the “Biochemical activity ratio V600E/C” value in series [1] is recorded as 0.1-10. Besides, the “turbidity threshold (L, M, H) 1.4” value in [4] was “M (moderate solubility if the threshold concentration is 31.3 μM to 250 μM)”. For the same compound, the “turbidity threshold (L, M, H) 4.5” value in [4] is reported as “M (moderate solubility if the threshold concentration is 31.3 μM to 250 μM)”. Further, in series [4], the “turbidity threshold (L, M, H) 6.8” value is “M (moderate solubility if the threshold concentration is 31.3 μM to 250 μM)”. The “turbidity threshold (L, M, H) 7.4” value in series [4] is on record as “M (moderate solubility if the threshold concentration is 31.3 μM to 250 μM)”. Moreover, the “Biochemical activity ratio B/V600E” value in series [6] was 0.1-10. The “Biochemical activity ratio B/C” value in [6] is 0.1-10.
